Results reported in PubChem BioAssay (NCI).
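How tested: cells in 96-well plates exposed to compound for 48 hours at five concentrations. GI50 is the concentration that inhibits growth by half. Definition used: TGI = concentration required for complete inhibition of growth.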

Tests used:
Experiment in all cases: NCI tumour cell line growth inhibition, 48 h
SW-620 colon = system: SW-620 colon
SF-539 CNS = system: SF-539 CNS
HCT-116 colon = system: HCT-116 colon
SNB-75 CNS = system: SNB-75 CNS
OVCAR-8 ovarian = system: OVCAR-8 ovarian
SN12C renal = system: SN12C renal
MALME-3M melanoma = system: MALME-3M melanoma
SK-OV-3 ovarian = system: SK-OV-3 ovarian
LOX IMVI melanoma = system: LOX IMVI melanoma
SF-268 CNS = system: SF-268 CNS

CN(C(=O)/C=C/c1ccccc1)C1C2CN3CCC(O2)C13 (stereo not given)
TGI (SW-620 colon): > 100 µM
TGI (SF-539 CNS): > 100 µM
TGI (HCT-116 colon): > 100 µM
TGI (SNB-75 CNS): > 100 µM
TGI (OVCAR-8 ovarian): > 100 µM
TGI (SN12C renal): > 100 µM
TGI (MALME-3M melanoma): > 100 µM
TGI (SK-OV-3 ovarian): > 100 µM
TGI (LOX IMVI melanoma): > 100 µM
TGI (SF-268 CNS): > 100 µM

O=C(/C=C/c1ccccc1)Oc1cccc2cccnc12
TGI (SW-620 colon): 21.9 µM
TGI (SF-539 CNS): 30.5 µM
TGI (HCT-116 colon): 10.9 µM
TGI (SNB-75 CNS): > 71 µM
TGI (OVCAR-8 ovarian): > 62.2 µM
TGI (SN12C renal): > 58.6 µM
TGI (MALME-3M melanoma): 11.4 µM
TGI (SK-OV-3 ovarian): > 100 µM
TGI (LOX IMVI melanoma): > 100 µM
TGI (SF-268 CNS): 13.7 µM

Nc1nc2ccc(-c3nc4ccc5[nH]ncc5c4c4c3CCC4)cc2s1
GI50 (SW-620 colon): 0.186 µM
TGI (SW-620 colon): 7.05 µM
GI50 (SF-539 CNS): 0.19 µM
TGI (SF-539 CNS): 4.15 µM
GI50 (HCT-116 colon): 0.244 µM
TGI (HCT-116 colon): 6.68 µM
GI50 (SNB-75 CNS): 0.115 µM
TGI (SNB-75 CNS): 0.55 µM
GI50 (OVCAR-8 ovarian): 0.978 µM
TGI (OVCAR-8 ovarian): 20.7 µM
GI50 (SN12C renal): 0.383 µM
TGI (SN12C renal): 8.79 µM
GI50 (MALME-3M melanoma): 0.202 µM
TGI (MALME-3M melanoma): 1.63 µM
GI50 (SK-OV-3 ovarian): 0.473 µM
TGI (SK-OV-3 ovarian): 2.52 µM
GI50 (LOX IMVI melanoma): 0.281 µM
TGI (LOX IMVI melanoma): 8.9 µM
GI50 (SF-268 CNS): 0.478 µM
TGI (SF-268 CNS): 20.2 µM

COC(=O)C1=CO[C@@H](OC2CC(CO)C(O)C(O)C2O)[C@@H]2[C@@H](C)[C@@H](OC(=O)/C=C/c3ccccc3)[C@@H](O)[C@H]12 (stereo not given in full) (tested in a mixture with another compound)
TGI (SW-620 colon): > 100 µM
TGI (SF-539 CNS): > 100 µM
TGI (HCT-116 colon): > 100 µM
TGI (SNB-75 CNS): > 100 µM
TGI (OVCAR-8 ovarian): > 100 µM
TGI (SN12C renal): > 100 µM
TGI (MALME-3M melanoma): > 100 µM
TGI (SK-OV-3 ovarian): > 100 µM
TGI (LOX IMVI melanoma): > 100 µM
TGI (SF-268 CNS): > 100 µM

CCOC(=O)NC(=O)c1cn(CCN2CCN(C(=O)NCCCCCCNC(=O)N3CCN(CCn4cc(C(=O)NC(=O)OCC)c(=O)[nH]c4=O)CC3)CC2)c(=O)[nH]c1=O
TGI (SW-620 colon): > 100 µM
TGI (SF-539 CNS): > 100 µM
TGI (HCT-116 colon): > 100 µM
TGI (SNB-75 CNS): > 100 µM
TGI (OVCAR-8 ovarian): > 100 µM
TGI (SN12C renal): > 100 µM
TGI (MALME-3M melanoma): > 100 µM
TGI (SK-OV-3 ovarian): > 100 µM
TGI (LOX IMVI melanoma): > 100 µM
TGI (SF-268 CNS): > 100 µM

O=C1/C(=C/c2ccc([N+](=O)[O-])cc2)CN(C(=O)CCN2CCC(=NO)CC2)C/C1=C\c1ccc([N+](=O)[O-])cc1
GI50 (SW-620 colon): 0.311 µM
TGI (SW-620 colon): 0.982 µM
GI50 (SF-539 CNS): 0.969 µM
TGI (SF-539 CNS): 2.91 µM
GI50 (HCT-116 colon): 0.552 µM
TGI (HCT-116 colon): 1.53 µM
GI50 (SNB-75 CNS): 1.95 µM
TGI (SNB-75 CNS): 9.05 µM
GI50 (OVCAR-8 ovarian): 0.806 µM
TGI (OVCAR-8 ovarian): 5.5 µM
GI50 (SN12C renal): 0.677 µM
TGI (SN12C renal): 2.51 µM
GI50 (MALME-3M melanoma): 2.04 µM
TGI (MALME-3M melanoma): 6.9 µM
GI50 (SK-OV-3 ovarian): 5.96 µM
TGI (SK-OV-3 ovarian): 17.4 µM
GI50 (LOX IMVI melanoma): 0.296 µM
TGI (LOX IMVI melanoma): 0.739 µM
GI50 (SF-268 CNS): 1.07 µM
TGI (SF-268 CNS): 6.01 µM

O=C(O)CCNS(=O)(=O)c1ccc(NC(=O)c2ccccc2)cc1
TGI (SW-620 colon): > 100 µM
TGI (SF-539 CNS): > 100 µM
TGI (SNB-75 CNS): > 100 µM
TGI (OVCAR-8 ovarian): > 100 µM
TGI (SN12C renal): > 100 µM
TGI (MALME-3M melanoma): > 100 µM
TGI (SK-OV-3 ovarian): > 100 µM
TGI (LOX IMVI melanoma): > 100 µM
TGI (SF-268 CNS): > 100 µM

C[C@@H](NC(C#N)c1ccco1)c1ccccc1 (stereo not given in full)
TGI (SW-620 colon): > 100 µM
TGI (SF-539 CNS): > 100 µM
TGI (HCT-116 colon): > 100 µM
TGI (SNB-75 CNS): > 100 µM
TGI (OVCAR-8 ovarian): > 100 µM
TGI (SN12C renal): > 100 µM
TGI (MALME-3M melanoma): > 100 µM
TGI (SK-OV-3 ovarian): > 100 µM
TGI (SF-268 CNS): > 100 µM

O=c1oc2ccccc2c2c1Sc1ccccc1N2
TGI (SW-620 colon): > 100 µM
TGI (SF-539 CNS): > 100 µM
TGI (HCT-116 colon): > 100 µM
TGI (OVCAR-8 ovarian): > 100 µM
TGI (SN12C renal): > 100 µM
TGI (LOX IMVI melanoma): > 100 µM
TGI (SF-268 CNS): > 100 µM
